“And” between values parts separate entries of the source, which are not always exact repeats. Equal values may be shown once. Inconclusive results and toxic doses are left out. How the source made its calls: active means survival T/C of 150% or more; inactive means T/C below 125% in these data.
Test system: P388 leukemia ip, CD2F1 mice, survival T/C
Test: NCI In Vivo Anticancer Drug Screen. Data for tumor model P388 Leukemia (intraperitoneal) in CD2F1 (CDF1) mice
Settings: endpoint: median survival time, higher = longer survival
Outline: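 Mice carrying the transplanted tumor received test compound or vehicle. Survival was recorded in each group, and the value is the treated-group measurement divided by that of the vehicle-treated control group.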

[1] = dose: 50.0 mg/kg/injection, schedule: Q01DX009 (ip), vehicle: saline
[2] = dose: 100.0 mg/kg/injection, schedule: Q01DX009 (ip), vehicle: saline
[3] = dose: 3.12 mg/kg/injection, schedule: Q01DX009 (ip), vehicle: saline
[4] = dose: 6.25 mg/kg/injection, schedule: Q01DX009 (ip), vehicle: saline
[5] = dose: 6.25 mg/kg/injection, schedule: Q04DX003 (ip), vehicle: saline
[6] = dose: 12.5 mg/kg/injection, schedule: Q01DX009 (ip), vehicle: saline
[7] = dose: 12.5 mg/kg/injection, schedule: Q04DX003 (ip), vehicle: saline
[8] = dose: 25.0 mg/kg/injection, schedule: Q04DX003 (ip), vehicle: saline
[9] = dose: 50.0 mg/kg/injection, schedule: Q01DX005 (ip), vehicle: saline
[10] = dose: 100.0 mg/kg/injection, schedule: Q01DX005 (ip), vehicle: saline
[11] = dose: 200.0 mg/kg/injection, schedule: Q01DX005 (ip), vehicle: saline
[12] = dose: 50.0 mg/kg/injection, schedule: Q01DX005 (ip), vehicle: saline with Tween-80
[13] = dose: 100.0 mg/kg/injection, schedule: Q01DX005 (ip), vehicle: saline with Tween-80
[14] = dose: 200.0 mg/kg/injection, schedule: Q01DX005 (ip), vehicle: saline with Tween-80
[15] = dose: 50.0 mg/kg/injection, schedule: Q01DX009 (ip), vehicle: Klucel (hydroxypropylcellulose) (HPC)
[16] = dose: 100.0 mg/kg/injection, schedule: Q01DX009 (ip), vehicle: Klucel (hydroxypropylcellulose) (HPC)
[17] = dose: 200.0 mg/kg/injection, schedule: Q01DX009 (ip), vehicle: Klucel (hydroxypropylcellulose) (HPC)

Measured: T/C

NC(=O)c1cn(CCO)nc1[N+](=O)[O-]
inactive: [1] 100 % of control | [2] 100 % of control | dose: 200.0 mg/kg/injection, schedule: Q01DX009 (ip), vehicle: saline 119 % of control

CC(CCC(=O)O)(c1cc(Br)c(O)c(Br)c1)c1cc(Br)c(O)c(Br)c1
inactive: dose: 100.0 mg/kg/injection, schedule: Q04DX003 (ip), vehicle: other 100 % of control | dose: 200.0 mg/kg/injection, schedule: Q04DX003 (ip), vehicle: other 100 % of control | dose: 400.0 mg/kg/injection, schedule: Q04DX003 (ip), vehicle: other 100 % of control

CN(C)c1ccc(C2c3c(oc4ccccc4c3=O)Oc3oc4ccccc4c(=O)c32)cc1
inactive: dose: 15.0 mg/kg/injection, schedule: Q01DX005 (ip), vehicle: saline with Tween-80 98 % of control | dose: 30.0 mg/kg/injection, schedule: Q01DX005 (ip), vehicle: saline with Tween-80 100 % of control | dose: 60.0 mg/kg/injection, schedule: Q01DX005 (ip), vehicle: saline with Tween-80 89 % of control

COc1cc(OC)c2c(=O)cc(-c3ccccc3)sc2c1
inactive: dose: 100.0 mg/kg/injection, schedule: Q01DX001 (ip), vehicle: saline with Tween-80 100 % of control | dose: 200.0 mg/kg/injection, schedule: Q01DX001 (ip), vehicle: saline with Tween-80 94 % of control | dose: 400.0 mg/kg/injection, schedule: Q01DX001 (ip), vehicle: saline with Tween-80 95 % of control

CC(=O)c1ccc2c(c1)N(CCCN1CCN(CCO)CC1)c1ccccc1S2
inactive: dose: 1.56 mg/kg/injection, schedule: Q01DX009 (ip), vehicle: saline 116 % of control | [3] 103 % of control | [4] 107 % of control | [5] 91 % of control | [6] 108 % of control | [7] 103 % of control | dose: 25.0 mg/kg/injection, schedule: Q01DX009 (ip), vehicle: saline 106 % of control | [8] 107 % of control | [1] 109 % of control | dose: 50.0 mg/kg/injection, schedule: Q04DX003 (ip), vehicle: saline 119 % of control

c1c2c(cc3c1OCO3)Cc1cc3c(cc1Cc1cc4c(cc1C2)OCO4)OCO3
inactive: dose: 50.0 mg/kg/injection, schedule: Q01DX009 (ip), vehicle: saline with Tween-80 108 % of control | dose: 100.0 mg/kg/injection, schedule: Q01DX009 (ip), vehicle: saline with Tween-80 108 % of control | dose: 200.0 mg/kg/injection, schedule: Q01DX009 (ip), vehicle: saline with Tween-80 100 % of control

CCOC(=O)c1ccc(NC(=O)Nc2cccc(NC(C)=O)c2)cc1
inactive: dose: 15.0 mg/kg/injection, schedule: Q01DX005 (ip), vehicle: Klucel (hydroxypropylcellulose) (HPC) 92 % of control | dose: 30.0 mg/kg/injection, schedule: Q01DX005 (ip), vehicle: Klucel (hydroxypropylcellulose) (HPC) 91 % of control | dose: 60.0 mg/kg/injection, schedule: Q01DX005 (ip), vehicle: Klucel (hydroxypropylcellulose) (HPC) 89 % of control

O=C(Nc1ccc(S(=O)(=O)O)cc1)c1ccc([N+](=O)[O-])cc1
inactive: [2] 100 % of control | dose: 400.0 mg/kg/injection, schedule: Q01DX009 (ip), vehicle: saline 109 % of control

CCOC(=O)/C=C(\I)C(=O)OCC
inactive: dose: 6.25 mg/kg/injection, schedule: Q01DX009 (ip), vehicle: Klucel (hydroxypropylcellulose) (HPC) 109 % of control | dose: 12.5 mg/kg/injection, schedule: Q01DX009 (ip), vehicle: Klucel (hydroxypropylcellulose) (HPC) 100 % of control | dose: 25.0 mg/kg/injection, schedule: Q01DX009 (ip), vehicle: Klucel (hydroxypropylcellulose) (HPC) 98 % of control

O=S(=O)(O)C1CC(S(=O)(=O)O)NC(S(=O)(=O)O)C1 (stereo not drawn)
inactive: [9] 99 % of control | [10] 98 % of control | [11] 94 % of control

COc1cc(N=Nc2ccc(N)nc2N)c(OC)cc1N=Nc1ccc([N+](=O)[O-])cc1
inactive: [12] 115 % of control | [13] 107 % of control | [14] 107 % of control

CCn1c2ccccc2c2cc(N=Nc3ccc(N)c4ccccc34)ccc21
inactive: dose: 100.0 mg/kg/injection, schedule: Q04DX003 (ip), vehicle: Klucel (hydroxypropylcellulose) (HPC) 97 % of control | dose: 200.0 mg/kg/injection, schedule: Q04DX003 (ip), vehicle: Klucel (hydroxypropylcellulose) (HPC) 101 % of control | dose: 400.0 mg/kg/injection, schedule: Q04DX003 (ip), vehicle: Klucel (hydroxypropylcellulose) (HPC) 94 % of control

CSC(=S)N/N=C\C(C)=N/N=C(N)N
inactive: [3] 101 % of control | [4] 101 % of control | [6] 107 % of control

CN1C2CCC1C(Br)C(=O)C2 (stereo not drawn)
inactive: [9] 100 % of control | [10] 108 % of control (2×) and 109 % of control | [11] 118 % of control

O=C1C2CSCN2C(=O)CN1CCN1CCOCC1 (stereo not drawn)
inactive: dose: 60.0 mg/kg/injection, schedule: Q01DX005 (ip), vehicle: saline 100 % of control | dose: 120.0 mg/kg/injection, schedule: Q01DX005 (ip), vehicle: saline 100 % of control | dose: 240.0 mg/kg/injection, schedule: Q01DX005 (ip), vehicle: saline 100 % of control

CCOC(=O)C1(C(=O)OCC)COC(=O)C1
inactive: dose: 16.0 mg/kg/injection, schedule: Q01DX009 (ip), vehicle: saline with Tween-80 97 % of control | dose: 32.0 mg/kg/injection, schedule: Q01DX009 (ip), vehicle: saline with Tween-80 109 % of control | dose: 64.0 mg/kg/injection, schedule: Q01DX009 (ip), vehicle: saline with Tween-80 114 % of control | dose: 128.0 mg/kg/injection, schedule: Q01DX009 (ip), vehicle: saline with Tween-80 97 % of control | dose: 256.0 mg/kg/injection, schedule: Q01DX009 (ip), vehicle: saline with Tween-80 106 % of control

c1ccc2c(c1)C1OC2c2c1ccc1ccccc21 (stereo not drawn)
inactive: [12] 97 % of control | [13] 90 % of control | [14] 88 % of control

OC(CCC1OCCO1)(CCC1OCCO1)c1ccccc1
inactive: [15] 97 % of control | [16] 103 % of control | [17] 93 % of control

CC(CCN(C)C)N(C)C (stereo not drawn)
inactive: dose: 50.0 mg/kg/injection, schedule: Q01DX005 (ip), vehicle: suspension in saline 106 % of control | dose: 100.0 mg/kg/injection, schedule: Q01DX005 (ip), vehicle: suspension in saline 98 % of control

[C-]#[N+]C(C)Cc1ccccc1 (stereo not drawn)
inactive: dose: 1.56 mg/kg/injection, schedule: Q04DX003 (ip), vehicle: saline 101 % of control | dose: 3.13 mg/kg/injection, schedule: Q04DX003 (ip), vehicle: saline 103 % of control | [5] 103 % of control | [7] 105 % of control | [8] 104 % of control

CC(C)c1ccccc1S(=O)c1ccccc1C(C)(C)O (stereo not drawn)
inactive: [15] 98 % of control | [16] 102 % of control | [17] 95 % of control

COc1ccc(/C=N/Nc2cc(C)nc3ccc(F)cc23)c2ccccc12
inactive: dose: 12.5 mg/kg/injection, schedule: Q01DX005 (ip), vehicle: Klucel (hydroxypropylcellulose) (HPC) 97 % of control | dose: 25.0 mg/kg/injection, schedule: Q01DX005 (ip), vehicle: Klucel (hydroxypropylcellulose) (HPC) 98 % of control | dose: 50.0 mg/kg/injection, schedule: Q01DX005 (ip), vehicle: Klucel (hydroxypropylcellulose) (HPC) 99 % of control

CNP1(NC)=NP(NC)(NC)=NP(NC)(NC)=NP(NC)(NC)=N1
inactive: [9] 115 % of control | [10] 110 % of control | [11] 104 % of control

CN=C(c1ccc(NC(=O)c2ccc(C(=O)Nc3ccc(C(=NC)N4CCOCC4)cc3)c(Cl)c2)cc1)N1CCOCC1
inactive: dose: 0.19 mg/kg/injection, schedule: Q01DX005 (ip), vehicle: saline 97 % of control | dose: 0.39 mg/kg/injection, schedule: Q01DX005 (ip), vehicle: saline 100 % of control | dose: 0.78 mg/kg/injection, schedule: Q01DX005 (ip), vehicle: saline 100 % of control | dose: 1.56 mg/kg/injection, schedule: Q01DX005 (ip), vehicle: saline 100 % of control | dose: 6.25 mg/kg/injection, schedule: Q01DX005 (ip), vehicle: saline 107 % of control

Reference: PubChem BioAssay AID330 (DTP/NCI, 2004)
